Entries after “also recorded” stand apart in the source; their conditions may differ.
Tests used:
[1] = system: human HT-29 colorectal cancer cells; experiment: Time-course uptake by flow cytometry (cell-associated fluorescence); type: cell-based; details: 5 μM, 37° C., HT-29 cells, FIG. 4B
Experimental: FIG. 4 is a series of charts illustrating higher and sustained uptake of KBC-201 (FIG. 4A). At the same concentration (5 μM), KBC-201 generates about half the fluorescence compared to free curcumin (Ex.: 488 nm, Em.: 530 nm) (FIG. 4B). Time-course uptake of KBC-201 (full line) and free curcumin (dotted line) in human HT-29 colorectal cancer cells. HT-29 cells were incubated at 37° C. with 5 μM of KBC-201 or curcumin at various times, trypsinized, washed, and cell-associated fluorescence uptake was quantified using a BD Accuri™ C6 flow cytometer.
(§1) The uptake of Curcumin conjugate or free Curcumin was measured as a function of time in human HT-29 colon cancer cells (FIG. 4). […] Indeed, the Curcumin conjugate (KBC-201) is less fluorescent by about 2-3 folds when compared to free Curcumin. […] The uptake of both KBC-201 and free Curcumin was next measured in the presence of Sortilin ligands (FIG. 5B). […] Taken together, data of the pharmacological inhibition using Sortilin ligands and the silencing of Sortlin expression confirm that the Curcumin conjugate is internalized via a Sortilin-dependent mechanism.

[2] = target: T1, Sortilin receptor (Homo sapiens, UniProt Q99523); experiment: Sortilin-mediated uptake in HT-29 cells (siRNA silencing and competition with Sortilin ligands); type: cell-based; details: 5 μM
T1 construct: Sortilin-deficient (siSortilin) HT-29 colorectal cancer cells; endogenous in cells; host or cells: HT-29 human colorectal cancer cells
T1 sequence (Q99523 78-831): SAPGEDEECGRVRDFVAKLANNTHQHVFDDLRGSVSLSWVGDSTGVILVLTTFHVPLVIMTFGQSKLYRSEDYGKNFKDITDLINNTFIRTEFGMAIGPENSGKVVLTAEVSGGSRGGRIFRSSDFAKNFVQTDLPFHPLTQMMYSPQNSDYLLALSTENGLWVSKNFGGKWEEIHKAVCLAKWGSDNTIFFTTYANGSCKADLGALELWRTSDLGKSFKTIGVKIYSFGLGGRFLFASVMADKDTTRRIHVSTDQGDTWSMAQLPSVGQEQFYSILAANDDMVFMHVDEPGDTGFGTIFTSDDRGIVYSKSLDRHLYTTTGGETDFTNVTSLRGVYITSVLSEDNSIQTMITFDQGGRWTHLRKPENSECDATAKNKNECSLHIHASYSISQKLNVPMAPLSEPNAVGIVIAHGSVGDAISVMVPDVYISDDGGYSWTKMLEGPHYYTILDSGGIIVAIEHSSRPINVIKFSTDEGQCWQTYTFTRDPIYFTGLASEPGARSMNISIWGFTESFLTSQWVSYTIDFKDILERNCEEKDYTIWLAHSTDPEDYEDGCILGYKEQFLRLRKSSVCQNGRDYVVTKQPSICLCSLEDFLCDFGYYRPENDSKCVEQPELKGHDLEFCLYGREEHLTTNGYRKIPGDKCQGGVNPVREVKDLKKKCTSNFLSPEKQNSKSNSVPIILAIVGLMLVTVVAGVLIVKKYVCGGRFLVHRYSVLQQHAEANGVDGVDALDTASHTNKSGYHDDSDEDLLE
Experimental: FIG. 5 is a series of charts showing Sortilin-mediated uptake of KBC-201 in human colorectal cancer cells, FIG. 5A) Uptake of 5 μM of KBC-201 or free curcumin were performed at 37° C. in control (siScrambled) or Sortilin-deficient (siSortilin) HT-29 colorectal cancer cells. After a 2 h incubation, cells were trypsinized to remove non-internalized products, washed 3-times with ice-cold PBS and cell-associated fluorescence was quantified using a BD Accuri™ C6 flow cytometer. […] Cell-associated fluorescence uptake was quantified using a BD Accuri™ C6 flow cytometer.
as §1

[3] = system: TNF-α-induced COX-2 expression in human HT-29 colon cancer cells; details: 2 h pre-treatment, 10 ng/mL TNF-α 24 h, HT-29, FIG. 6; compared to free Curcumin
Experimental: (§2) Cells were pre-treated for 2 h with indicated compounds in serum-free medium before the addition of 10 ng/mL TNF-α for 24 h. Cells were lysed and the levels protein expression of COX-2 were monitored by immunoblotting. […] For each sample, the COX-2 level was corrected for GAPDH (a loading control) and normalized to those seen in TNF-α control (value=100%).
as §2, with “the” for “the levels”, “expression levels” for “expression”

[4] = system: TNF-α-induced IκB phosphorylation in human HT-29 colon cancer cells; experiment: Inhibition of TNF-α-induced IκB phosphorylation in HT-29 cells; type: cell-based; details: 24 h pre-treatment, 100 ng/mL TNF-α 5 min, HT-29, FIGS. 8 and 17; compared to Curcumin
From the text: FIG. 8A) Immunodetection of IκB phosphorylation by TNF-α is shown.
One of the inflammatory pathways induced by TNF-α leads to the phosphorylation of IkB (FIG. 1), a key protein in inflammation. As expected, the addition of TNF-α to human HT-29 colon cancer cells triggered the phosphorylation of IkB (pIkB) (FIG. 8).
One of the inflammatory pathways induced by TNF-α leads to the phosphorylation IkB (see FIG. 1), a key protein in inflammation. It was observed that the addition of TNF-α to human HT-29 colon cancer cells triggered the phosphorylation of IkB (pIkB) (FIGS. 17A and 17B).

[5] = system: TNF-α-induced NFκB phosphorylation in human MDA-MB231 breast cancer cells; experiment: Inhibition of TNF-α-induced NFκB phosphorylation in MDA-MB231 cells; type: cell-based; details: 24 h pre-treatment, 100 ng/mL TNF-α 5 min, MDA-MB231, FIGS. 9 and 18
From the text: FIG. 9A) Immunodetection of phosphorylated NFκB by TNF-α is shown.
(§3) FIGS. 9 and 10 are other examples of the Curcumin conjugate (KBC-201)'s effect on the TNF-α-induced signaling pathways in two other cancer cell models.
Results presented in FIGS. 18A and 18B show now that the peptide alone (KBP-201) can reduce the TNF-α-induced NFκB phosphorylation by about 30%.
In FIG. 18A, immunodetection of NFκB phosphorylation by TNF-α is shown.

[6] = system: TNF-α-induced IκB phosphorylation in human SKOV3 ovarian cancer cells; experiment: Inhibition of TNF-α-induced IκB phosphorylation in SKOV3 cells; type: cell-based; details: 24 h pre-treatment, 100 ng/mL TNF-α 5 min, SKOV3, FIG. 10
From the text: FIG. 10A) Immunodetection of IκB phosphorylation by TNF-α is shown.
as §3

[7] = Stability at room temperature followed by absorbance over time; details: FIG. 11
From the text: FIG. 11 is a graph showing absorbance of Curcumin conjugates and free Curcumin.

For “Acetyl-YK(curcumin)SLRRK(curcumin)APRWDAPLRDPALRQLL (YKSLRRKAPRWDAPLRDPALRQLL) [KBC-201]”, which “Uptake over time (cell-associated fluorescence)” value [1] is on record?
Its value is “higher and sustained uptake over time”.

What about the “Uptake when Sortilin expression is reduced by siRNA” value ([2]; 2 h, 37° C., siSortilin vs siScrambled HT-29 cells, FIG. 5A) of the same substance?
The value was “strongly inhibited; also recorded: reduces KBC-201 uptake”.

And the “Uptake in the presence of Sortilin ligands” value ([2]; excess free peptide (50 μM), neurotensin (10 μM) or progranulin (1 nM), HT-29 cells, FIG. 5B)?
Its value is “inhibited the uptake; also recorded: inhibit the uptake of KBC-201”.

What about the “Inhibition of TNFα-induced COX-2 expression” value [3] of the same substance?
The value was “stronger inhibition”.

And the “Inhibition of TNF-α-induced IkB phosphorylation” value [4]?
The value was “stronger inhibition”.

What about the “Antagonism of TNF-α-induced phosphorylation of pro-inflammatory proteins (NFκB)” value [5] of the same substance?
Its value is “more potent than free Curcumin”.

What about the “Antagonism of TNF-α-induced phosphorylation of pro-inflammatory proteins (IκB)” value [6] of the same substance?
The value was “more potent than free Curcumin”.

And the “Stability (absorbance over time)” value [7]?
Its value is “more stable”.

From patent US20200157151A1, “PEPTIDE COMPOUNDS, CONJUGATE COMPOUNDS AND USES THEREOF FOR TREATING INFLAMMATORY DISEASES” (TRANSFERT PLUS, S.E.C., priority 2017, published 2020)
